These are literature values, as cited in patent publication US11168056B2, “Process for the manufacturing of (6aR,10aR)-7-propyl-6,6a,7,8,9,10,10a,11-octahydro-[1,3]dioxolo[4′,5′:5,6]benzo[1,2-G]quinoline and (4aR,10aR)-1-propyl-1,2,3,4,4a,5,10,10a-octahydro-benzo[G]quinoline-6,7-diol” (H. Lundbeck A/S, priority 2019, dated 2021).

Data set [1] relates to animal models relevant for Parkinson's Disease. The conditions noted are these: various animal models.
The conditions of data set [2]: rats.
The conditions of data set [3]: man, after oral dosing.
In the next data set the test system is PD patients. The settings on record: intravenous (IV).
The conditions of data set [4]: rats. The source holds these as a separate data set.

Read-outs that look alike come from different tables or passages of the source.

With `CCCN1CCC[C@@H]2CC3=C(CCCC3=O)C[C@H]21` [(Ia)], in data set [1], the “efficacy in animal models relevant for Parkinson's Disease” value (“efficacy in animal models relevant” below) is reported as “effective”. In data set [2], the “conversion to the active compound (I)” value is recorded as “converted to the active compound (I)”.

In the case of `CCCc1cc2c(s1)CN[C@@H]1CCc3cc(OC(C)=O)c(OC(C)=O)cc3[C@@H]21` [Adrogolide], in data set [3], the hepatic first-pass metabolism result is reported as “extensive” and the oral bioavailability is reported as about 4%. Also, the antiparkinson efficacy result with PD patients is on record as “comparable to that of L-DOPA”.

Turning to `CCCN1CCC[C@@H]2Cc3c(ccc(O)c3O)C[C@H]21` [compound (I), (4aR,10aR)-1-propyl-1,2,3,4,4a,5,10,10a-octahydro-benzo[g]quinoline-6,7-diol], the “efficacy in animal models relevant” value in data set [1] is recorded as “effective”. In data set [4], the oral bioavailability entry was “low”.

Take `CCCN1CCC[C@@H]2Cc3c(ccc4c3OCO4)C[C@H]21` [compound (Ib), (6aR,10aR)-7-propyl-6,6a,7,8,9,10,10a,11-octahydro-[1,3]dioxolo[4′,5′:5,6]benzo[1,2-g]quinoline]: in data set [1], the “efficacy in animal models relevant” value was “effective”. Besides, the “conversion of compound (Ib) to compound (I)” value in the data set with human hepatocytes and in the data set on rat hepatocytes was “demonstrated” throughout.
